Values of other authors, collected in patent US20140348931A1, “SUSTAINED-RELEASE TOPIRAMATE FORMULATIONS” (CADILA HEALTHCARE LIMITED, priority 2013, published 2014).

Conditions: in vivo

**Q.** With `CC1(C)OC2[C@@H](CO[C@@]3(COS(N)(=O)=O)OC(C)(C)O[C@@H]23)O1` (stereo partly drawn) [topiramate, 2, 3: 4, 5 Di-O-isopropylidene-β-D-fructopyranose sulfamate] as the compound, how does the half-life read?
**A.** The half-life was 21 h.
